Measurements taken from patent publication US5420129A, “Phenylsulfonylamide pyrimidine” (Hoffmann-La Roche Inc., priority 1992, dated 1995).

How the values were obtained:
[1] = target: endothelin receptors (human placenta membranes); experiment: Inhibition of endothelin binding to human placenta membranes (125I-endothelin); conditions: 125I-endothelin 20 pM, 20° C. for 2 hours or 4° C. for 24 hours, read-out: IC50 (concentration required to inhibit 50% of the specific binding of 125I-endothelin)
Protocol: I. Inhibition of endothelin binding to human placenta membranes (see. Life Sci 44:1429 (1989))
Human placenta is homogenized in 5 mM Tris buffer, pH 7.4, which contains 1 mM MgCl2 and 250 mM sucrose. The homogenizate is centrifuged at 4° C. and 3000 g for 15 minutes, the supernatant containing the plasma membrane fraction is centrifuged with 72000 g for 30 minutes and the precipitate is washed with 75 mM Tris buffer, pH 7.4, which contains 25 mM MgCl2. Thereafter, precipitate obtained from in each case 10 g of original tissue is suspended in 1 ml of 75 mM Tris buffer, pH 7.4, containing 25 mM MgCl2 and 250 mM sucrose, and freeze-dried at --20° C. in 1 ml aliquots.
For the binding assay, the freeze-dried membrane preparations are thawed and, after centrifugation at 20° C. and 25000 g for 10 minutes, re-suspended in assay buffer (50 mM Tris buffer, pH 7.4, containing 25 mM MnCl2, 1 mM EDTA and 0.5% of bovine serum albumin). 100 μl of this membrane suspension containing 70 μg of protein are incubated with 50 μl of ^125 I-endothelin (specific activity 2200 Ci/mMol) in assay buffer (25000 cpm, final concentration 20 pM) and 100 μl of assay buffer containing varying concentrations of test compound. The incubation is carried out at 20° C. for 2 hours or at 4° C. for 24 hours. The separation of free and membrane-bound radioligands is carried out by filtration over a glass fiber filter.
The inhibitory activity of compounds of formula I determined in test procedure I is given in Table 1 as the IC50, that as the concentration […] which is required to inhibit 50% of the specific binding of ^1251 -endothelin.

[2] = system: isolated rat aorta rings; experiment: Endothelin-induced contractions in isolated rat aorta rings; set-up: species or system rat (Wistar-Kyoto); conditions: in the absence of test compounds; endothelium removed; 37° C.; read-out: EC50 of endothelin (concentration required for a half-maximum contraction)
Protocol: II. Inhibition of endothelin-induced contractions in isolated rat aorta rings
Rings with a length of 5 mm were cut out from the thorax aorta of adult Wistar-Kyoto rats. The endothelium was removed by lightly rubbing the internal surface. Each ring was immersed at 37° C. in 10 ml of Krebs-Henseleit solution in an isolated bath while gassing with 95% O2 and 5% CO2. The isometric stretching of the rings was measured. The rings were stretched to a pre-tension of 3 g. After incubation for 10 minutes with the test compound or vehicle cumulative dosages of endothelin-1 were added. The activity of the test compound was determined by calculating the dosage ratios, i.e. the shift to the right (shift to higher values) of the EC50 of endothelin induced by 100 μM of test compound, with EC50 denoting the endothelin concentration required for a half-maximum contraction. […] The EC50 of endothelin in the absence of test compounds is 0.3 nM.

IC50 [1]	Molecule	EC50 [2]
182 nM	COc1ccc(Cl)c(Oc2c(COCC(O)CO)nc(N3CCOCC3)nc2NS(=O)(=O)c2ccc(C(C)(C)C)cc2)c1 (racemic) [Example 13, (R,S)-4-tert-butyl-N-[5-(2-chloro-5-methoxy-phenoxy)-6-(2,3-dihydroxy-propoxymethyl)-2-(morpholin-4-yl)-pyrimidin-4yl]-benzenesulphonamide]	
130 nM	COc1ccc(Cl)c(Oc2c(CO)nc(N3CCOCC3)nc2NS(=O)(=O)c2ccc(C(C)(C)C)cc2)c1 [Example 3, 4-tert-butyl-N-[5-(2-chloro-5-methoxy-phenoxy)-6-hydroxymethyl-2-(morpholin-4-yl)-pyrimidin-4-yl]-benzenesulphonamide]	
35 nM	COc1ccc(Cl)c(Oc2c(COCCO)nc(N3CCOCC3)nc2NS(=O)(=O)c2ccc(C(C)(C)C)cc2)c1 [Example 5, 4-tert-butyl-N-[5-(2-chloro-5methoxy-phenoxy)-6-(2-hydroxy-ethoxymethyl)-2-(morpholin-4-yl)-pyrimidin-4-yl]-benzenesulphonamide]	
184 nM	COc1ccc(Cl)c(Oc2c(COCCO)ncnc2NS(=O)(=O)c2ccc(C(C)(C)C)cc2)c1 [Example 10, 4-tert-Butyl-N-[5-(2-chloro-5-methoxy-phenoxy)-6-(2-hydroxy-ethoxy-methyl)-pyrimidin-4-yl]-benzenesulphonamide]	
	endothelin: endothelin-1, agonist added in cumulative dosages to contract rat aorta rings	0.3 nM
